{
  "source": "patent US20100087702A1",
  "about": "“Composition and method to modify sperm fertility and female gender ratio in mammals” (priority 2008, published 2010)",
  "origin": "cited, not measured here",
  "key": {"[1]": {"test_system": "Hexose Monophosphate Shunt (HMS)", "conditions": "Tiffen et al., 1991"}, "[2]": {"test_system": "early-staged mouse embryos", "conditions": "Williams, 1986"}},
  "data": [
    {"smiles": "CCN(CC)c1cc2c(cc1C)Nc1ccc(N)cc1O2", "note": "[BCB, 2-methyl-3-diethylamino-7-amino phenoxazine]", "values": [
      {"measurement": "increase in oxidation of glucose through the HMS", "setting": "[1]", "result": 15, "unit": "fold"},
      {"measurement": "toxicity of BCB and its metabolites", "setting": "[2]", "result": "relatively non-toxic"}
    ]}
  ]
}
